Source: publication PMC3974779, “Pterostilbene-Isothiocyanate Conjugate Suppresses Growth of Prostate Cancer Cells Irrespective of Androgen Receptor Status” (PLoS ONE, 2014)

Legend:
[1] = test system: cleaved caspase-3 in LNCaP cells; experiment: Akt/ERK silencing or inhibition, cleaved caspase-3 immunoblot; assay type: cell-based, human
Procedure: (§1) The siRNAs against human Akt and ERK and control siRNA were purchased commercially from Santa Cruz Biotechnology (USA). The LNCaP and PC-3 PCa cells were transfected with siRNAs (at a final concentration of 100 nM) using polyfect transfection reagent (Qiagen, CA, USA) according to manufacturer’s instructions. After 24 h of transfection, the cells were washed properly and replaced with fresh medium. The cells were then treated with 20 μM conjugate for 24 h, and finally protein lysates were prepared on completion of treatment. The levels of p-Akt, p-ERK and cleaved caspase-3 expressions were detected by Western blot analysis.
Figure 5 Differential role of PI3K/Akt and MAPK/ERK pathways in conjugate induced apoptosis of prostate cancer cells. Effects of siRNA mediated silencing of Akt and ERK on conjugate-induced apoptosis of (A) PC-3 and (B) LNCaP cells. LNCaP and PC-3 PCa cells were transfected with siRNAs (at a final concentration of 100 nM) using polyfect transfection reagent. After 24 h of transfection the cells were treated with 20 μM conjugate and allowed to grow for another 24 h. The cell lysates were prepared and the level of p-Akt, p-ERK and cleaved caspase-3 proteins were detected by immunoblot analysis. The histogram on the right panel of each figure represents densitometric analyses of the image data and expressed as percent of control where the results are mean ± SEM of three independent experiments. *and # represents statistically significant difference with respect to control and 20 μM conjugate treated groups respectively at p<0.05.
Supplementary file pone.0093335.s001.tif: Figure S1 (A) Effects of the Akt Kinase inhibitor (A6730) and/or the ERK inhibitor (PD98059) on the conjugate-induced apoptosis of PC-3 and (B) LNCaP cells. The cells were pre-treated with A6730 (5 μM) and/or PD98059 (20 μM) for 1 h before the addition of 20 μM conjugate for additional 24 h (total inhibitor exposure time was 25 h). The collected cell lysates were then immunoblotted using respective antibodies. The histogram on the right panel of each figure represents densitometric analyses of the image data and expressed as percent of control where the results are mean ± SEM of three independent experiments. *and # represents statistically significant difference with respect to control and 20 μΜ conjugate treated groups respectively at p<0.05. (TIF) Click here for additional data file.

[2] = biological target: T1, AR nuclear localization in LNCaP cells (Homo sapiens, UniProt P10275); experiment: GFP-AR nuclear localization; assay type: cell-based; conditions: 10 and 20 μM with 10 nM DHT
T1 construct: expressed in transfected cells; host or cells: LNCaP and PC-3
T1 sequence (P10275 whole entry): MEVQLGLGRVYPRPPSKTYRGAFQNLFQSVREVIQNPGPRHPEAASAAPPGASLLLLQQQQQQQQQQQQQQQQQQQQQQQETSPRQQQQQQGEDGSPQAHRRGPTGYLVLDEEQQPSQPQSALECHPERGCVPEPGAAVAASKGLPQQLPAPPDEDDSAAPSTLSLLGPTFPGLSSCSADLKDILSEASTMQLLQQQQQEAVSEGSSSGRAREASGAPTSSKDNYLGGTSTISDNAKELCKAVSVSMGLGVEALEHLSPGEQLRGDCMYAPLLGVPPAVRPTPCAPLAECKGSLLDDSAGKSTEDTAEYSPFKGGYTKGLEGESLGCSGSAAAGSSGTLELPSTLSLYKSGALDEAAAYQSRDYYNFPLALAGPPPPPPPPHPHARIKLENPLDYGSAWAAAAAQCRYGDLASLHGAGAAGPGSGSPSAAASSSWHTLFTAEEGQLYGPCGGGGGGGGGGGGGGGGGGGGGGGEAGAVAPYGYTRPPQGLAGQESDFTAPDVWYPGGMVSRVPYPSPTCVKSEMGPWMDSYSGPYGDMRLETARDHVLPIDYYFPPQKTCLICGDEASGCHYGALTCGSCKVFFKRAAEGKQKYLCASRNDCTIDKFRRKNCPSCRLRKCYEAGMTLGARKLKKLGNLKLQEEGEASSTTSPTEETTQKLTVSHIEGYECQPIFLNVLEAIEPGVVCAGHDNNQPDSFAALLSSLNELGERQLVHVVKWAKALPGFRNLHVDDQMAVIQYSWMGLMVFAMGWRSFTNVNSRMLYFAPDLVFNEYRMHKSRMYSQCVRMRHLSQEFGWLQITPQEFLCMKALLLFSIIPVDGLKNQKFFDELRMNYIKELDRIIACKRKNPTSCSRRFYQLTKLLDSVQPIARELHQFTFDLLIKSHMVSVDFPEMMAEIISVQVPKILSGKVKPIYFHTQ
Procedure: (§2) For localization studies, pEGFP-AR plasmid was transfected to LNCaP and PC-3 cells (300 ng/10^5 cells).

[3] = biological target: T2, AR nuclear localization in PC-3 cells (Homo sapiens, UniProt P10275); experiment: GFP-AR nuclear localization; assay type: cell-based; conditions: PC-3, 10 and 20 μM with 10 nM DHT
T2 construct: expressed in transfected cells; host or cells: LNCaP and PC-3
T2 sequence (P10275 whole entry): as above
Procedure: as §2

LNCaP cells [4] = experiment: Annexin-V/PI apoptosis assay by flow cytometry; assay type: cell-based, human; conditions: 24 h
Procedure: (§3) Cell cycle distribution and Annexin V/Propidium iodide (PI) positive cells were analyzed using flow cytometry. In brief, first the cells were seeded and treated with 0, 10, 20 and 40 μM conjugate in complete medium for 24 h. This was followed by trypsinizing and fixing in 70% ethanol, and finally washing with PBS. Subsequently, the cells were treated with RNase A (50 μg/ml), stained with PI (50 μg/ml) and incubated in the dark for 30 min at room temperature and analyzed by flow cytometry for cell cycle distribution. For apoptosis, the conjugate treated cells were stained with Alexa-Fluor 488-conjugated Annexin-V using the Vybrant-Apoptosis Assay Kit from Invitrogen (USA) as per the manufacturer’s protocol. The stained cells were then analyzed by fluorescence activated cell sorting (FACS Calibur, BD Biosciences, San Jose, CA, USA) and the data were standardized using Cell Quest 3.3 software.

PC-3 cells [5] = experiment: Annexin-V/PI apoptosis assay by flow cytometry; assay type: cell-based, human; conditions: 24 h
Procedure: as §3

[6] = test system: caspase-3 expression in PC-3 cells; experiment: Immunoblot analysis of apoptotic markers; assay type: cell-based, human; conditions: PC-3, highest dose (40 μM), immunoblot densitometry
Procedure: (§4) The whole-cell lysates were prepared as described previously in immunoprecipitation (IP) buffer containing 50 mM Tris-HCl (pH 8.0), 150 mM NaCl, 5 mM EDTA, and 1% Triton X-100. Protein aliquots of 500 μg were then incubated overnight at 4°C using 2 μg of antibody directed against AR. The Protein A-Cl Agarose beads were then added and further incubated for 6 h at 4°C. The immunoprecipitates were washed four times with the IP buffer and the immunocomplexes were recovered by boiling in SDS sample buffer. Finally the western blot was carried out using anti-AR, anti-SRC-1 and anti-GRIP-1 antibodies (Santa Cruz, CA, USA). For western blot analysis, the cell lysates were prepared after harvesting them in lysis buffer. About 40 μg of total protein was electrophoresed by 12% SDS-PAGE, and the western blotting was carried out using standard protocol. In brief, the analyzed proteins were transferred to nylon membranes. The blots were then blocked with TBST buffer (20 mM Tris-Cl, pH 7.5, 150 mM sodium chloride, 0.05% Tween-20) containing 5% skim milk powder. They were then washed with TBST buffer and incubated overnight at 4°C with the same buffer containing appropriate amounts of primary antibodies: caspase-3, Bax, Bcl-2, Akt, p-Akt, ERK, p-ERK, AR, SRC-1, GRIP-1 (1∶500) and β-actin (1∶1000). The blots were then washed and incubated with anti-rabbit secondary antibody (1∶20,000) conjugated with horseradish peroxidase (HRP). Color development was performed in the dark by using an ECL kit (Amersham, GE Healthcare, Buckinghamshire, UK). The developed blots were subjected to densitometric analysis by ImageJ 1.43 software (NIH, USA) using β-actin as internal control.

[7] = test system: caspase-3 expression in LNCaP cells; experiment: Immunoblot analysis of apoptotic markers; assay type: cell-based, human; conditions: highest dose (40 μM), immunoblot densitometry
Procedure: as §4

p-ERK in PC-3 cells = experiment: Immunoblot of ERK phosphorylation; assay type: cell-based, human; conditions: 24 h
Procedure: as §4, §1

LNCaP cells [8] = experiment: Cell cycle distribution by flow cytometry; assay type: cell-based, human
Procedure: as §3

PC-3 cells [9] = experiment: Cell cycle distribution by flow cytometry; assay type: cell-based, human; conditions: PC-3, 40 μM, 24 h (control 22%)
Procedure: as §3

p-ERK in LNCaP cells = experiment: Immunoblot of ERK phosphorylation; assay type: cell-based, human; conditions: highest dose, 24 h
Procedure: as §4, with “The blots were then washed and incubated with anti-rabbit secondary antibody (1∶20,000) conjugated with horseradish peroxidase (HRP). Color development was performed in the dark by using an ECL kit (Amersham, GE Healthcare, Buckinghamshire, UK). The developed blots were subjected to densitometric analysis by ImageJ 1.43 software (NIH, USA) using β-actin as internal control.” left out

`COc1cc(/C=C/c2ccc(O)c(/C=N/NC(N)=S)c2)cc(OC)c1` [conjugate, Pterostilbene-isothiocyanate conjugate] was tested, and the “increase in cleaved caspase-3 protein level” value ([1]; Akt-silenced LNCaP cells, 20 μM conjugate) was ~4.5 folds, the “increase in cleaved caspase-3 level” value ([1]; ERK-silenced LNCaP cells, 20 μM conjugate) was 6.5 folds and the “cleaved caspase-3 in ERK-silenced cells plus conjugate relative to conjugate alone” value ([1]; LNCaP, 20 μM conjugate) was “about 1.4 times”. The “level of cleaved caspase-3 vs conjugate alone” value ([1]; LNCaP, A6730 (5 μM) combined with 20 μM conjugate) was “did not show any significant increase”, the “level of cleaved caspase-3 vs conjugate alone” value ([1]; LNCaP, co-treatment with PD98059 (20 μM) and 20 μM conjugate) was “significantly increased” and the “DHT induced nuclear localization of AR” value [2] was “significantly inhibited”. The “DHT induced nuclear localization of AR” value [3] was “significantly inhibited”, the “early apoptotic cells (Annexin V positive only, lower right quadrant)” value (LNCaP cells [4]; 20 μM) was 52% and the “late apoptotic cells (Annexin V and PI positive, upper right quadrant)” value (LNCaP cells [4]; 20 μM) was 8%. The “late apoptotic cells (Annexin V and PI positive, upper right quadrant)” value (LNCaP cells [4]; 40 μM) was 18.5%, the “early apoptotic cells (Annexin V positive only, lower right quadrant)” value (PC-3 cells [5]; PC-3, 20 μM) was “about 44%” and the “late apoptotic cells (Annexin V and PI positive, upper right quadrant)” value (PC-3 cells [5]; PC-3, 20 μM) was 12%. For the same compound, the “early apoptotic cells (Annexin V positive only, lower right quadrant)” value (PC-3 cells [5]; PC-3, 40 μM) was ~68%, the “late apoptotic cells (Annexin V and PI positive, upper right quadrant)” value (PC-3 cells [5]; PC-3, 40 μM) was 16% and the “enhancement of caspase-3 expression” value [6] was ~6 folds. For the same compound, the “enhancement of caspase-3 expression” value [7] was “about 8.5 folds”, the “reduction in level of p-ERK” value (p-ERK in PC-3 cells; PC-3, 20 μM) was 1.3 folds and the “reduction in level of p-ERK” value (p-ERK in PC-3 cells; PC-3, 40 μM) was 1.7 folds. The “accumulation of cells in G2/M phase” value (LNCaP cells [8]; increasing doses of conjugate, 24 h) was 16–35%, the “cells in G2/M phase” value (LNCaP cells [8]; treated cells, 24 h (control 11%)) was 35% and the “cells arrested in G2/M phase” value (PC-3 cells [9]) was “approximately 50%”. For the same compound, the “inhibition of p-ERK” value (p-ERK in LNCaP cells) was “almost completely inhibited”.
